Experimental data published in article PMC8657912, “Substrate-Dependent Trans-Stimulation of Organic Cation Transporter 2 Activity” (International Journal of Molecular Sciences, 2021).
Read-outs that look alike come from different tables or passages of the source.

Legend:
[1] = target: T1, human OCT2 (Homo sapiens, UniProt O15244); assay: Uptake trans-stimulation assay of OCT2-mediated DiASP uptake in HEK-OCT2 cells; assay type: cell-based; parameters: host or cells: HEK293 (HEK-OCT2); details: for Trans-modulation of OCT2-mediated DiASP uptake (in words): HEK-OCT2 cells preloaded 30 min with substrate, 0.01–10 mM or 0.1–100 µM range
T1 sequence (O15244 1-555): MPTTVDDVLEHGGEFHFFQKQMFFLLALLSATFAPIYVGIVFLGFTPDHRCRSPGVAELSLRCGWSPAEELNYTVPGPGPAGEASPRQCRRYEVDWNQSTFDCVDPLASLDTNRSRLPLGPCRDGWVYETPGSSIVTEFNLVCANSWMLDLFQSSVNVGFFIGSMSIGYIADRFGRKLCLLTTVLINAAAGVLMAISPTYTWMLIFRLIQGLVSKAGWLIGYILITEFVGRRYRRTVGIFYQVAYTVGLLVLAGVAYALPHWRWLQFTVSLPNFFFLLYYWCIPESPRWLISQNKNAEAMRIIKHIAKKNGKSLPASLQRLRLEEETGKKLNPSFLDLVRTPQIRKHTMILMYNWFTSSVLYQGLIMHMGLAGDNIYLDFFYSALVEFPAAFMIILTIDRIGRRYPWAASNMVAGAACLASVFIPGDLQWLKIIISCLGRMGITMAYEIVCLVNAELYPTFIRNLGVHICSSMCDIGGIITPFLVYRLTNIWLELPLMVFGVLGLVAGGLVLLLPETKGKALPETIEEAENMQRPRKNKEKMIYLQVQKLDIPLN
Experimental: Uptake trans-stimulation assays were performed as schematically depicted in Figure 4.
Figure 4 Schematic representation of the various steps of the trans-stimulation assay performed for investigating OCT2 substrates (created with biorender.com). Step 1 corresponds to the initial incubation of cells without (Control) or with candidate substrate for 30 min at 37 °C. Step 2 consists of the incubation of cells with the reference tracer substrate (DiASP) for 5 min at 37 °C. Step 3 is the measurement of cellular accumulation of DiASP through spectrofluorimetry.
(§1) They were cultured in Dulbecco’s modified Eagle medium (DMEM) (Life Technologies, Carlsbad, CA, USA), supplemented with 10% (vol/vol) fetal calf serum, 10 IU/mL penicillin, 10 μg/mL streptomycin, 1% non-essential amino acids, and 1 μg/mL insulin, as already reported.
OCT2 trans-stimulation assays were performed through monitoring cellular uptake of the tracer substrate DiASP. As schematically depicted in Figure 4, HEK-OCT2 cells were first incubated in the absence (control) or presence of different concentrations of OCT2 substrates for 30 min at 37 °C in the transport assay medium described above. After washing with PBS, cells were re-incubated with 10 µM DiASP for 5 min. Cellular accumulation of the fluorescence dye was next determined by spectrofluorimetry, as reported above. Data were commonly expressed as % of DiASP uptake in control cells, set at 100%, or as fluorescence arbitrary units (FAU)/mg protein.

[2] = target: T1, human OCT2; assay: Cis-inhibition of OCT2-mediated DiASP uptake in HEK-OCT2 cells
Experimental: as §1
Cis-inhibition of OCT2 activity was analysed as previously described. Briefly, HEK-OCT2 cells were incubated with 10 µM DiASP, in the absence (control) of the presence of 100 µM amitriptyline (used here as a reference inhibitor of OCT2 activity) or of various concentrations of the OCT2 substrates, for 5 min. The transport assay medium consisted of 5.3 mM KCl, 1.1 mM KH2PO4, 0.8 mM MgSO4, 1.8 mM CaCl2, 11 mM dextrose, 10 mM HEPES, and 136 mM NaCl, adjusted to pH = 7.4. Next, cells were washed with phosphate-buffered saline (PBS) and lysed in distilled water. Intracellular accumulation of DiASP was then determined by spectrofluorimetry using a PerkinElmer Enspire spectrofluorometer (Waltham, MA, USA); excitation and emission wavelengths were 485 nm and 607 nm, respectively. DiASP accumulation values were thereafter normalized to total protein content, determined by the Bradford method.
IC50 values of OCT2 substrates towards OCT2-mediated uptake of DiASP and the corresponding 95% confidence intervals were determined from nonlinear regression of concentration-response data, based on the four-parameter logistic function. They were calculated using Prism 9.3 software (GraphPad Software, San Diego, CA, USA), through the following Equation (2):(2) A = 100/1 + 10^OCT2 substrate − LogIC50 × Hill slope where A = the percentage of transporter activity for a given concentration of OCT2 substrate determined as described in Equation (1), [OCT2 substrate] = OCT2 substrate concentration in the transport assay medium, and Hill slope = a coefficient describing the steepness of the curve.

[3] = system: OCT3 (SLC22A3); parameters: method as in PMID 12538837; details: cited from earlier work
[4] = system: OCT2; details: cited from earlier work; for Trans-stimulation of OCT2 activity: radiolabelled MPP+ as tracer substrate; for Trans-stimulation of OCT2-mediated MPP+ uptake: MPP+ as tracer
[5] = system: HEK-MOCK cells; assay: Trans-stimulation assay of DiASP uptake in control HEK-MOCK cells; assay type: cell-based, human; details: data not shown
[6] = HEK-OCT2 cells preloaded 30 min 37 °C, washed, then 10 µM DiASP 5 min
[7] = read-out: IC50 towards OCT2-mediated uptake of DiASP (cis-inhibition), HEK-OCT2 cells, 10 µM DiASP, 5 min, 37 °C, 95% CI in brackets

Compound	Trans-modulation of OCT2-mediated DiASP uptake (in words) [1]	IC50 [2] [µM]	Lowest trans-inhibiting concentration towards DiASP uptake [1, 6] [mM]	also measured
CC(=O)OCC[N+](C)(C)C [Acetylcholine, acetylcholine]	trans-stimulate	530		
NCCCCN=C(N)N [Agmatine, agmatine]	trans-stimulate	410	10	Loading concentration that significantly trans-stimulates DiASP uptake [1, 6]: 0.1 mM; Trans-stimulation of OCT3 activity [3]: trans-stimulate
CCN1CCCC1CNC(=O)c1cc(S(=O)(=O)CC)c(N)cc1OC (centres unmarked) [Amisulpride, amisulpride]		40		
C[N+](C)(C)CCO [Choline, choline]	trans-stimulate	1330		Loading concentration that significantly trans-stimulates DiASP uptake [1, 6]: 1 mM; Trans-stimulation of OCT2 activity [4]: trans-stimulate
CN/C(=N/CCSCc1nc[nH]c1C)NC#N [Cimetidine, cimetidine]	failed to trans-stimulate	79.6	10	Trans-stimulation of OCT2-mediated MPP+ uptake [4]: failed to trans-stimulate
NCCc1ccc(O)c(O)c1 [Dopamine, dopamine]		2390	10	
CNC[C@H](O)c1ccc(O)c(O)c1 [Epinephrine, epinephrine]		1490	1	
Nc1ccn([C@@H]2CS[C@H](CO)O2)c(=O)n1 [Lamivudine, lamivudine]		1900		Lowest trans-inhibiting concentration towards DiASP uptake [1]: 10 mM
C[n+]1ccc(-c2ccccc2)cc1 [MPP^+, 1-methyl-4-phenyl pyridinium]	failed to trans-stimulate			IC50 [2, 7]: 0.91 µM; Trans-stimulation of OCT2-mediated MPP+ uptake [4]: failed to trans-stimulate
CN(C)C(=N)N=C(N)N [Metformin, metformin]	trans-stimulate	1140		Trans-stimulation of DiASP uptake in control HEK-MOCK cells [5]: failed to significantly trans-stimulate; Trans-stimulation of OCT2 activity [4]: trans-stimulate
COCCn1c2c([n+](Cc3cnccn3)c1C)C(=O)c1ccccc1C2=O [Sepantronium, sepantronium]		7.04	0.001	
NCCc1c[nH]c2ccc(O)cc12 [Serotonin, serotonin]		180	1	
CC[N+](CC)(CC)CC [TEA, tetra-ethylammonium]				IC50 [2, 7]: 180 µM
Cc1ncc(C[n+]2csc(CCO)c2C)c(N)n1 [Thiamine, thiamine]		270	10	
CN(C)CCC=C1c2ccccc2CCc2ccccc21 [amitriptyline]				Effect on metformin-stimulated uptake of DiASP ([1]; 100 µM amitriptyline during DiASP step, cells preloaded with 10 mM metformin 30 min): fully suppressed; Effect on uptake of DiASP in HEK-OCT2 cells not preloaded with metformin ([2]; 100 µM amitriptyline, 10 µM DiASP 5 min 37 °C): abolished
